Results as given in patent US20190343908A1, “Therapeutic Combination for the Treatment of Cancer” (Nerium Biotechnology Inc., priority 2011, published 2019).

Key:
[1] = tested on: MCF-7 (human breast cancer); experiment: Methyl-Tetrazolium viability assay, MCF-7; format: cell-based; set-up: key: absorbance (optical density) at 570 nm, second wavelength subtracted
From the text: (§1) Three different viability assays were chosen to complement each other and yielded results dependent on concentration and cell line: the Methyl Tetrazolium dye assay, the Sulforhodamine B fluorescent dye assay, and the Crystal Violet dye assay.
The Methyl-Tetrazolium dye assay measures the activity of enzymes in mitochondria. The dye precursor is taken up by cells, where it undergoes reduction to the purple formazan. It measures only the mitochondrial activity and, thus, it is not always a reliable indication of whether the cells themselves are alive or dead, since even a recently dead cell has […] enzyme activity in mitochondria. Intracellular glucose concentration, pH, and time before assay all affect the measurements.
(§2) The Methyl Tetrazolium, Sulforhodamine B, and Crystal Violet assays were used to assess cell viabilities. The incubation times were 24 hours, 48 hours, and 72 hours. The Nerium oleander extract Anvirzel™ (a hot water extract of oleander obtained from Salud Integral, Honduras) was tested in concentrations ranging from 0.01 ng/mL to 10 ng/mL.
(§3) Cells were detached by trypsinization (Trypsin-0.25% EDTA, Invitrogen, 25200-072) during the logarithmic phase of culture growth and plated in 96-well plates (18.000 cells/well) (Corning, Costar 359) in a final volume of 200 μl of medium per well. […] The absorbance was measured after 24 hours, 48 hours, and 72 hours of incubation.
For the Methyl-Tetrazolium assay, the dye (Sigma, M2128; 5 mg/mL, diluted in phosphate-buffered saline) was added to each well and plates were incubated for 3 hours at 37° C. After the end of the incubation period, the medium was discarded and the cells were rinsed with phosphate-buffered saline. Finally, the formazan crystals were dissolved in dimethylsulphoxide (Sigma, D4540).
(§4) The optical density of each plate was measured on a μQuant spectrophotometer and the data were analyzed with Gen5 software (μQuant Biomolecular Spectrophotometer MQX200 and Gen5™ Microplate Data Collection & Analysis software, BioTek® Instruments. Inc, April 2008). Absorbance was measured at 570 nm for all assays and a second wavelength was measured in order to subtract noise. For the Methyl-Tetrazolium assay this second wavelength was 630 nm and for the Sulforhodamine B and Crystal Violet assays it was 690 nm.

[2] = tested on: LNCaP prostate cancer cell line; experiment: Sulforhodamine B viability assay, LNCaP; format: cell-based, human; conditions: for ABSORBANCE: LNCaP, 0.1 μg/mL cisplatin
From the text: as §1
The Sulforhodamine B and Crystal Violet assays provide information about protein and were used to complement the Methyl-Tetrazolium dye assay. […] It is used for the quantification of cellular proteins of cultured cells. The assay using Crystal Violet, a dye that binds electrostatically to proteins and stains DNA, provides a reliable, simple assay for measuring viability of cells.
as §2, §3
For the Sulforhodamine B assay, 96-well plates were fixed by 10% trichloroacetic acid (Fluka, 91228) and were incubated at 4° C. for 1 hour. Afterwards, plates were rinsed with water and cells were stained with 0.4% Sulforhodamine B (Sigma, 341738), dissolved in 1% acetic acid (Carlo Ebra, 401422) for 15 minutes at room temperature (RT). The unbound stain was washed twice with 1% acetic acid. Finally, 10 mM Tris Buffer pH 10.5 (Sigma, T6791) was added to dissolve the dye.
as §4

Compound: N.N.[Cl][Pt][Cl] [cisplatin]
- MTT Average ([1]; MCF-7, Run 2, 24 h, 0.1 μg/ml CDDP): 0.263
- MTT Average ([1]; MCF-7, Run 2, 24 h, 1 μg/ml CDDP): 0.027
- MTT Average ([1]; MCF-7, Run 2, 24 h, 10 μg/ml CDDP): 0.124
- MTT Average ([1]; MCF-7, Run 2, 24 h, 100 μg/ml CDDP): 0.029
- MTT Average ([1]; MCF-7, Run 2, 48 h, 0.1 μg/ml CDDP): 0.37
- MTT Average ([1]; MCF-7, Run 2, 48 h, 1 μg/ml CDDP): 0.025
- MTT Average ([1]; MCF-7, Run 2, 48 h, 10 μg/ml CDDP): 0.045
- MTT Average ([1]; MCF-7, Run 2, 48 h, 100 μg/ml CDDP): 0.029
- MTT Average ([1]; MCF-7, Run 2, 72 h, 0.1 μg/ml CDDP): 0.39
- MTT Average ([1]; MCF-7, Run 2, 72 h, 1 μg/ml CDDP): 0.038
- MTT Average ([1]; MCF-7, Run 2, 72 h, 10 μg/ml CDDP): 0.028
- MTT Average ([1]; MCF-7, Run 2, 72 h, 100 μg/ml CDDP): 0.013
- MTT Average ([1]; MCF-7, Run 3, 24 h, 0.1 μg/ml CDDP): 0.516
- MTT Average ([1]; MCF-7, Run 3, 24 h, 1 μg/ml CDDP): 0.039
- MTT Average ([1]; MCF-7, Run 3, 24 h, 10 μg/ml CDDP): 0.135
- MTT Average ([1]; MCF-7, Run 3, 24 h, 100 μg/ml CDDP): 0.026
- MTT Average ([1]; MCF-7, Run 3, 48 h, 0.1 μg/ml CDDP): 0.525
- MTT Average ([1]; MCF-7, Run 3, 48 h, 1 μg/ml CDDP): 0.041
- MTT Average ([1]; MCF-7, Run 3, 48 h, 10 μg/ml CDDP): 0.03
- MTT Average ([1]; MCF-7, Run 3, 48 h, 100 μg/ml CDDP): 0.032
- MTT Average ([1]; MCF-7, Run 3, 72 h, 0.1 μg/ml CDDP): 0.546
- MTT Average ([1]; MCF-7, Run 3, 72 h, 1 μg/ml CDDP): 0.035
- MTT Average ([1]; MCF-7, Run 3, 72 h, 10 μg/ml CDDP): 0.032
- MTT Average ([1]; MCF-7, Run 3, 72 h, 100 μg/ml CDDP): 0.018
- MTT Average ([1]; MCF-7 Run 1, 24 h, 0.1 μg/ml CDDP): 0.574
- MTT Average ([1]; MCF-7 Run 1, 24 h, 1 μg/ml CDDP): 0.066
- MTT Average ([1]; MCF-7 Run 1, 24 h, 10 μg/ml CDDP): 0.194
- MTT Average ([1]; MCF-7 Run 1, 24 h, 100 μg/ml CDDP): 0.034
- MTT Average ([1]; MCF-7 Run 1, 48 h, 0.1 μg/ml CDDP): 0.719
- MTT Average ([1]; MCF-7 Run 1, 48 h, 1 μg/ml CDDP): 0.051
- MTT Average ([1]; MCF-7 Run 1, 48 h, 10 μg/ml CDDP): 0.069
- MTT Average ([1]; MCF-7 Run 1, 48 h, 100 μg/ml CDDP): 0.025
- MTT Average ([1]; MCF-7 Run 1, 72 h, 0.1 μg/ml CDDP): 0.788
- MTT Average ([1]; MCF-7 Run 1, 72 h, 1 μg/ml CDDP): 0.048
- MTT Average ([1]; MCF-7 Run 1, 72 h, 10 μg/ml CDDP): 0.047
- MTT Average ([1]; MCF-7 Run 1, 72 h, 100 μg/ml CDDP): 0.023
- SRB Average ([2]; LNCaP Run 3, 24 h, 0.1 μg/ml CDDP): 1.975
- SRB Average ([2]; LNCaP Run 3, 24 h, 1 μg/ml CDDP): 1.541
- SRB Average ([2]; LNCaP Run 3, 24 h, 10 μg/ml CDDP): 1.242
- SRB Average ([2]; LNCaP Run 3, 24 h, 100 μg/ml CDDP): 1.2
- SRB Average ([2]; LNCaP Run 3, 48 h, 0.1 μg/ml CDDP): 1.761
- SRB Average ([2]; LNCaP Run 3, 48 h, 1 μg/ml CDDP): 1.56
- SRB Average ([2]; LNCaP Run 3, 48 h, 10 μg/ml CDDP): 1.46
- SRB Average ([2]; LNCaP Run 3, 48 h, 100 μg/ml CDDP): 1.284
- SRB Average ([2]; LNCaP Run 3, 72 h, 0.1 μg/ml CDDP): 2.009
- SRB Average ([2]; LNCaP Run 3, 72 h, 1 μg/ml CDDP): 1.584
- SRB Average ([2]; LNCaP Run 3, 72 h, 10 μg/ml CDDP): 1.561
- SRB Average ([2]; LNCaP Run 3, 72 h, 100 μg/ml CDDP): 1.421
- ABSORBANCE ([2]; 48 h): 1.681
- ABSORBANCE ([2]; 72 h): 1.766
- Average SRB 24 h ([2]; Run 1, 0.1 μg/ml CDDP): 1.611
- Average SRB 48 h ([2]; Run 1, 0.1 μg/ml CDDP): 2.798
- Average SRB 72 h ([2]; Run 1, 0.1 μg/ml CDDP): 2.532
- Average SRB 24 h ([2]; Run 1, 1 μg/ml CDDP): 1.294
- Average SRB 48 h ([2]; Run 1, 1 μg/ml CDDP): 2.888
- Average SRB 72 h ([2]; Run 1, 1 μg/ml CDDP): 2.483
- Average SRB 24 h ([2]; Run 1, 10 μg/ml CDDP): 1.205
- Average SRB 48 h ([2]; Run 1, 10 μg/ml CDDP): 2.893
- Average SRB 72 h ([2]; Run 1, 10 μg/ml CDDP): 2.648
- Average SRB 24 h ([2]; Run 1, 100 μg/ml CDDP): 1.2
- Average SRB 48 h ([2]; Run 1, 100 μg/ml CDDP): 2.555
- Average SRB 72 h ([2]; Run 1, 100 μg/ml CDDP): 2.649
- Average SRB 24 h ([2]; Run 2, 0.1 μg/ml CDDP): 1.78
- Average SRB 48 h ([2]; Run 2, 0.1 μg/ml CDDP): 1.681
- Average SRB 72 h ([2]; Run 2, 0.1 μg/ml CDDP): 1.766
- Average SRB 24 h ([2]; Run 2, 1 μg/ml CDDP): 1.495
- Average SRB 48 h ([2]; Run 2, 1 μg/ml CDDP): 1.14
- Average SRB 72 h ([2]; Run 2, 1 μg/ml CDDP): 1.396
- Average SRB 24 h ([2]; Run 2, 10 μg/ml CDDP): 0.982
- Average SRB 48 h ([2]; Run 2, 10 μg/ml CDDP): 1.077
- Average SRB 72 h ([2]; Run 2, 10 μg/ml CDDP): 1.28
- Average SRB 24 h ([2]; Run 2, 100 μg/ml CDDP): 0.985
- Average SRB 48 h ([2]; Run 2, 100 μg/ml CDDP): 1.138
- Average SRB 72 h ([2]; Run 2, 100 μg/ml CDDP): 1.25
